This is an account of results in patent publication US8809347B2, “Bicyclic aryl and bicyclic heteroaryl substituted triazoles useful as AXL inhibitors” (Rigel Pharmaceuticals, Inc., priority 2006, dated 2014).

The structures appear in SMILES notation.

In the assay the target is T1, Axl (Homo sapiens, UniProt P30530).
T1 construct: Cells: Hela cells; endogenous in cells; host or cells: HeLa cells
T1 sequence (P30530 26-894): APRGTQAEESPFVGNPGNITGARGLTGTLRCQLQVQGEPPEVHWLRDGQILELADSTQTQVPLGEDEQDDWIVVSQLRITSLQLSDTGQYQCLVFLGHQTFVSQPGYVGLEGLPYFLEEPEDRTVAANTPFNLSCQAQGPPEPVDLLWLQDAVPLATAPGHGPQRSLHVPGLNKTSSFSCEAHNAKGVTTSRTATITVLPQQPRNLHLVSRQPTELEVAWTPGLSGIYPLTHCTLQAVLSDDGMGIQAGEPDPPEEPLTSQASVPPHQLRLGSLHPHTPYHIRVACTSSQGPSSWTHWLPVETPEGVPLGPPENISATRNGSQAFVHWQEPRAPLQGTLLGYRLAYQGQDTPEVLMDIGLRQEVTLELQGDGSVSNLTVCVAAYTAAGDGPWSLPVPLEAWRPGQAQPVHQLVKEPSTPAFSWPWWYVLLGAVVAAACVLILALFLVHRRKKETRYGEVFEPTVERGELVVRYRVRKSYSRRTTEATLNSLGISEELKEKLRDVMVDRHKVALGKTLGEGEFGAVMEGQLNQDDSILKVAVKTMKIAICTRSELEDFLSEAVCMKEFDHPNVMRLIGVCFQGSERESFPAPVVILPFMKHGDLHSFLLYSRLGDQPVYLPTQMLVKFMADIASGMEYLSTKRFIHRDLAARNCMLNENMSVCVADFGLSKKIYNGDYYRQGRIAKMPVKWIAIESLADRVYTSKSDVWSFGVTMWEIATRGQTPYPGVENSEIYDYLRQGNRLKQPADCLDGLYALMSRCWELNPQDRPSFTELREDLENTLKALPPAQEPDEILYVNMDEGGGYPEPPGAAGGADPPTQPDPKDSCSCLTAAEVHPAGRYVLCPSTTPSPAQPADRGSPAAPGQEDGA
The assay can be described thus: Phospho-Akt in-cell Western assay (inhibition of Axl activity). As to conditions: Hela cells; 1 hr pre-treatment; stimulation by Axl-antibody cross-linking; phospho-Akt chemiluminescence normalized to relative cell number. It is filed as cell-based. How it is done: The compounds of the invention were tested in the following assay for their ability to inhibit Axl activity.
Phospho-Akt in-Cell Western Assay
• Cell culture plate: 96 well assay plate (Corning 3610), white, clear bottom, tissue-culture treated. • Cells: Hela cells. • Starvation medium: For Axl stimulation: 0.5% FCS (fetal calf serum) in DMEM, plus Axl/Fc (extracellular domain of AXL fused to immunoglobulin Fc region) (R&D, 154-AL) 500 ng/mL. • For EGF (epidermal growth factor) stimulation: 0.5% FCS in DMEM (Dulbecco's modified Eagles medium). • Poly-L-Lysine 0.01% solution (the working solution): […], dilute In PBS (phosphate buffered saline). • Axl antibody cross-linking: • 1st: Mouse anti-Axl (R&D, MAB154). • 2nd: Biotin-SP-conjugated AffiniPure goat anti-mouse IgG (H+ L) (Jackson ImmunoResearch #115-065-003). • Fixing buffer: 4% formaldehyde in PBS. • Wash buffer: 0.1% TritonX-100 in PBS. • Quenching buffer: 3% H2O2, 0.1% Azide in wash buffer, Azide and hydrogen peroxide (H2O2) are added fresh. • Blocking buffer: 5% BSA in TBST (tris buffered saline plus 0.1% Tween 20). • Primary antibody: Rabbit anti-human Phospho-Akt antibody (Cell Signaling 9271): 1×250 diluted in blocking buffer. • Secondary antibody: HRP (horse radish peroxidase)-conjugated Goat anti-Rabbit secondary, stock solution: Jackson ImmunoResearch (Goat anti-Rabbit HRP, #111-035-144) 1:1 diluted in glycerol, store at −20° C. The working solution: 1×2000 dilution of stock in blocking buffer. • Chemiluminescent working solution (Pierce, 37030): SuperSignal ELISA (enzyme linked immunosorbant assay) Pico Chemiluminescent substrate. • Crystal Violet solution: Stock: 2.5% Crystal violet in methanol, filtered and kept at ambient temperature. The working solution: dilute the stock 1:20 with PBS immediately before use. • 10% SDS: working solution: 5% SDS (sodium dodecylsulfate), diluted in PBS Methods: Day 1:
A 96 well TC (tissue culture treated) plate was coated with 10 μg/mL poly-L-Lysine at 37° C. for 30 min, washed twice with PBS, and air-dried for 5 minutes before cells were added. Hela cells were seeded at 10,000 cells/well and the cells were starved in 100 μL starvation medium containing Axl/Fc for 24 hrs.
The cells were pre-treated with test compounds by adding 100 μL of 2× test compound to the starvation medium on the cells. The cells were incubated at 37° C. for 1 hr before stimulation.
The cells were stimulated by Axl-antibody cross-linking as follows: A 5× 1st/2nd Axl antibody mixture was made (37.5 μg/mL 1st/100 μg/mL 2nd) in starvation medium and nutated at 4° C. with thorough mixing for 1-2 hours for clustering. The resulting mix was warmed to 37° C. 50 μL of 5× Axl 1st/2nd of antibody cluster was added to the cells and the cells were incubated at 37° C. for 5 min.
After 5 minutes stimulation, the plate was flicked to remove medium and the plate was tapped onto paper towels. Formaldehyde (4.0% in PBS, 100 μL) was added to fix the cells and the cells were incubated at ambient temperature for 20 min without shaking.
The cells were washed with a plate washer buffer to remove the formaldehyde solution. The plate was flicked to removed excess wash buffer and tapped onto paper towels. Quenching buffer (100 μL) was added to each well and the cells were incubated at ambient temperature for 20 minutes without shaking.
The cells were washed with a plate washer buffer to remove the quenching buffer. Blocking buffer (100 μL) was added and the cells were incubated at ambient temperature for at least an hour with gentle shaking.
The cells were washed with a plate washer buffer and diluted primary antibody (50 μL) was added to each well (blocking buffer was added to the negative control wells instead). The plates were incubated overnight at 4° C. with gentle shaking.
The wash buffer was removed, diluted secondary antibody (100 μL) was added, and the cells were incubated at ambient temperature for 1 hour with gentle shaking. […]

For the molecule `Nc1nc(Nc2ccc(OCCN3CCCC3)cc2)nn1-c1ncc2c(n1)CCCCCC2` [Compound 1, 1-(5,6,7,8,9,10-hexahydrocycloocta[d]pyrimidin-2-yl)-N^3-(4-(2-(pyrrolidin-1-yl)ethoxy)phenyl)-1H-1,2,4-triazole-3,5-diamine], the IC50 was < 1000 nM. Turning to `CN1CCN(c2ccc(Nc3nc(N)n(-c4ncc5c(n4)CCCCCC5)n3)cc2)CC1` [Compound 2, 1-(5,6,7,8,9,10-hexahydrocycloocta[d]pyrimidin-2-yl)-N^3-(4-(4-methylpiperazin-1-yl)phenyl)-1H-1,2,4-triazole-3,5-diamine], the IC50 is < 1000 nM.

Take `Nc1nc(Nc2ccc(N3CCN(C4CC5CCC4C5)CC3)cc2)nn1-c1ncc2c(n1)CCCCCC2` (centres unmarked) [Compound 3, N^3-(4-(4-(bicyclo[2.2.1]heptan-2-yl)piperazin-1-yl)phenyl)-1-(5,6,7,8,9,10-hexahydrocycloocta[d]pyrimidin-2-yl)-1H-1,2,4-triazole-3,5-diamine]: the IC50 was < 1000 nM. As for `CN1CCCN(c2ccc(Nc3nc(N)n(-c4ncc5c(n4)CCCCCC5)n3)cc2F)CC1` [Compound 4, N^3-(3-fluoro-4-(4-methyl-1,4-diazepan-1-yl)phenyl)-1-(5,6,7,8,9,10-hexahydrocycloocta[d]pyrimidin-2-yl)-1H-1,2,4-triazole-3,5-diamine], the figure is < 1000 nM. For `Nc1nc(Nc2ccc(N3CCN(C4CCCCC4)CC3)cc2)nn1-c1ncc2c(n1)CCCCCC2` [Compound 5, N^3-(4-(4-cyclohexylpiperazin-1-yl)phenyl)-1-(5,6,7,8,9,10-hexahydrocycloocta[d]pyrimidin-2-yl)-1H-1,2,4-triazole-3,5-diamine], the IC50 was < 1000 nM. As for `CN(C)[C@@H]1CCN(c2ccc(Nc3nc(N)n(-c4ncc5c(n4)CCCCCC5)n3)cc2)C1` [Compound 6, (R)—N^3-(4-(3-(dimethylamino)pyrrolidin-1-yl)phenyl)-1-(5,6,7,8,9,10-hexahydrocycloocta[d]pyrimidin-2-yl)-1H-1,2,4-triazole-3,5-diamine], the figure is 1000 to 10000 nM. Then `CN(C)[C@H]1CCN(c2ccc(Nc3nc(N)n(-c4ncc5c(n4)CCCCCC5)n3)cc2)C1` [Compound 7, (S)—N^3-(4-(3-(dimethylamino)pyrrolidin-1-yl)phenyl)-1-(5,6,7,8,9,10-hexahydrocycloocta[d]pyrimidin-2-yl)-1H-1,2,4-triazole-3,5-diamine], with 1000 to 10000 nM; and `Nc1nc(Nc2ccc(N3CCN(C4CCCCC4)CC3)c(Cl)c2)nn1-c1ncc2c(n1)CCCCCC2` [Compound 8, N^3-(3-chloro-4-(4-cyclohexylpiperazin-1-yl)phenyl)-1-(5,6,7,8,9,10-hexahydrocycloocta[d]pyrimidin-2-yl)-1H-1,2,4-triazole-3,5-diamine], with < 1000 nM. As for `CN1CCN(Cc2ccc(Nc3nc(N)n(-c4ncc5c(n4)CCCCCC5)n3)cc2)CC1` [Compound 9, 1-(5,6,7,8,9,10-hexahydrocycloocta[d]pyrimidin-2-yl)-N^3-(4-((4-methylpiperazin-1-yl)methyl)phenyl)-1H-1,2,4-triazole-3,5-diamine], the figure is 1000 to 10000 nM; as for `Nc1nc(Nc2ccc(N3CCC(N4CCCC4)CC3)c(F)c2)nn1-c1ncc2c(n1)CCCCCC2` [Compound 10, N^3-(3-fluoro-4-(4-(pyrrolidin-1-yl)piperidin-1-yl)phenyl)-1-(5,6,7,8,9,10-hexahydrocycloocta[d]pyrimidin-2-yl)-1H-1,2,4-triazole-3,5-diamine], < 1000 nM; as for `CN1CCc2ccc(Nc3nc(N)n(-c4ncc5c(n4)CCCCCC5)n3)cc2C1` [Compound 12, 1-(5,6,7,8,9,10-hexahydrocycloocta[d]pyrimidin-2-yl)-N^3-(2-methyl-1,2,3,4-tetrahydroisoquinolin-7-yl)-1H-1,2,4-triazole-3,5-diamine], > 20000 nM. Turning to `Nc1nc(Nc2ccc(N3CCN(c4ccc(F)cc4)CC3)cc2)nn1-c1ncc2c(n1)CCCCCC2` [Compound 13, N^3-(4-(4-(4-fluorophenyl)piperazin-1-yl)phenyl)-1-(5,6,7,8,9,10-hexahydrocycloocta[d]pyrimidin-2-yl)-1H-1,2,4-triazole-3,5-diamine], the IC50 was > 20000 nM. Then `CCOC(=O)N1CCN(c2ccc(Nc3nc(N)n(-c4ncc5c(n4)CCCCCC5)n3)cc2F)CC1` [Compound 14, ethyl 4-(4-(5-amino-1-(5,6,7,8,9,10-hexahydrocycloocta[d]pyrimidin-2-yl)-1H-1,2,4-triazol-3-ylamino)-2-fluorophenyl)piperazine-1-carboxylate], with 1000 to 10000 nM.

For the molecule `CC(C)(COc1ccc(Nc2nc(N)n(-c3ncc4c(n3)CCCCCC4)n2)cc1)N1CCCC1` [Compound 15, 1-(5,6,7,8,9,10-hexahydrocycloocta[d]pyrimidin-2-yl)-N^3-(4-(2-methyl-2-(pyrrolidin-1-yl)propoxy)phenyl)-1H-1,2,4-triazole-3,5-diamine], the IC50 was < 1000 nM. As to `Nc1nc(Nc2ccc(N3CCN(C4CCCCC4)CC3)cc2)nn1-c1cc2c(nn1)CCCCCC2` [Compound 16, N^3-(4-(4-cyclohexylpiperazin-1-yl)phenyl)-1-(5,6,7,8,9,10-hexahydrocycloocta[c]pyridazin-3-yl)-1H-1,2,4-triazole-3,5-diamine], the IC50 was < 1000 nM. As for `Nc1nc(Nc2ccc(N3CCC(N4CCCC4)CC3)c(F)c2)nn1-c1cc2c(nn1)CCCCCC2` [Compound 17, N^3-(3-fluoro-4-(4-(pyrrolidin-1-yl)piperidin-1-yl)phenyl)-1-(5,6,7,8,9,10-hexahydrocycloocta[c]pyridazin-3-yl)-1H-1,2,4-triazole-3,5-diamine], the figure is < 1000 nM. As for `Nc1nc(Nc2ccc(OCCN3CCCC3)cc2)nn1-c1cc2c(nn1)CCCCCC2` [Compound 18, 1-(5,6,7,8,9,10-hexahydrocycloocta[c]pyridazin-3-yl)-N^3-(4-(2-(pyrrolidin-1-yl)ethoxy)phenyl)-1H-1,2,4-triazole-3,5-diamine], the figure is < 1000 nM.
